Read-outs that look alike come from different tables or passages of the source.
Key:
Colo205 = assay: Cytotoxicity, Colo205; format: cell-based; conditions: Homo sapiens, COLO 205; 72 h incubation; this work
Excerpt: (§1) Supplementary Information
(§2) (11 pictures or pasted objects on this page, not shown here)

MES-SA/Dx5 [1] = assay: Cytotoxicity in double coculture, MES-SA/Dx5 eGFP; conditions: for IC50: Homo sapiens, MES-SA/Dx5, 144 h, read-out: IC50 MES-SA/Dx5; for SR = IC50 (MES-SA)/IC50 (MES-SA/Dx5): double coculture
Protocol: (§5) Therefore, the novel half-sandwich complexes (1–4) and their corresponding ligands were tested against a coculture of MES-SA and MES-SA/Dx5 cells expressing the fluorescent proteins mCherry or eGFP, respectively.[62]
(§6) The tested compounds were dissolved in 50% (v/v) DMSO/PBS’ buffer to prepare 5–10 mM stock solutions, which were diluted in complete culture medium. Constitutive expression of the fluorescent proteins allowed multiplexing in cytotoxicity experiments.[62] […] Serial dilutions of the compounds were added 24 h after seeding. To address the effect of P-gp function, TQ was added at a nontoxic concentration (0.4 μM) 15 min before the test compounds. […] IC50 values and standard deviation were calculated from average pIC50 values from at least 3 independent measurements.

Colo320 = assay: Cytotoxicity, Colo320; format: cell-based, human; conditions: this work
Excerpt: as §1, §2

MES-SA [2] = assay: Cytotoxicity in double coculture, MES-SA mCherry; conditions: Homo sapiens, MES-SA, 144 h, read-out: IC50 MES-SA
Protocol: as §5, §6

MES-SA [3] = assay: Cytotoxicity in triple coculture, MES-SA mCherry; format: cell-based, human; conditions: Homo sapiens, MES-SA/B1, MES-SA/Dx5, 144 h
Protocol: (§3) Cell lines were purchased from the American Type Culture Collection (ATCC). MES-SA/B1 is a human MDR1-transfected derivative of MES-SA, and MES-SA mCherry, MES-SA/B1 mOrange, and MES-SA/Dx5 eGFP were engineered to stably express the respective fluorescent proteins previously.[62] Cells were kept in culture medium (DMEM) supplemented with 10% fetal bovine serum, 2 mM L-glutamine, 100 units/mL penicillin, and 100 μg/mL streptomycin (Thermo Fisher). One week before use, MES-SA/Dx5 eGFP cells were treated with 0.5 μM doxorubicin to ensure ABCB1/P-gp expression.
(§4) The tested compounds were dissolved in 50% (v/v) DMSO/PBS’ buffer to prepare 5–10 mM stock solutions, which were diluted in complete culture medium. Constitutive expression of the fluorescent proteins allowed multiplexing in cytotoxicity experiments.[62] Cells were mixed before seeding in 384-well plates: in double cocultures, MES-SA mCherry and MES-SA/Dx5 eGFP cells were seeded at 1250–1250 cells/well (in total 2500 cells/well); while in triple cocultures, MES-SA mCherry, MES-SA/Dx5 eGFP and MES-SA/B1 mOrange cells were seeded at 800–800–800 cells/well (in total 2400 cells/well). Serial dilutions of the compounds were added 24 h after seeding. To address the effect of P-gp function, TQ was added at a nontoxic concentration (0.4 μM) 15 min before the test compounds. The intensity of the fluorescent proteins, which is proportional to cell mass, was measured after 144 h of incubation at the respective fluorescent channels (excitation/emission: eGFP: 485 nm/510 nm; mOrange: 545 nm/567 nm; mCherry: 585 nm/610 nm). pIC50 values were calculated by a custom program written by Judit Sessler in C#.[62] IC50 values and standard deviation were calculated from average pIC50 values from at least 3 independent measurements.

MES-SA/Dx5 [4] = assay: Cytotoxicity in triple coculture, MES-SA/Dx5 eGFP; format: cell-based, human
Protocol: as §3, §4

[5] = pH 7.4; cited from earlier work
A431 = system: A431; set-up: method as in earlier work; conditions: monoculture, 72 h, PrestoBlue; ref SI3; cited from earlier work
A431-B1 = system: A431-B1; set-up: method as in earlier work; conditions: monoculture, ref SI3, cited from earlier work
MES-SA [6] = conditions: monoculture, PrestoBlue; ref SI2; cited from earlier work
MES-SA/Dx5 [7] = conditions: monoculture, ref SI2, cited from earlier work

| SMILES | IC50 (Colo205) [nM] | IC50 (MES-SA/Dx5 [1]) [nM] | SR = IC50 (MES-SA)/IC50 (MES-SA/Dx5) (MES-SA/Dx5 [1]; + 0.4 μM tariquidar (TQ)) | SR = IC50 (MES-SA)/IC50 (MES-SA/Dx5) (MES-SA/Dx5 [1]; without TQ) | IC50 (Colo320; Homo sapiens, COLO 320, 72 h incubation) [nM] | SR (Colo205 / Colo320) (Colo320) | IC50 (MES-SA [2]) [nM] | IC50 (MES-SA [3]) [nM] | SR Dx5 = IC50 (MES-SA)/IC50 (MES-SA/Dx5) (MES-SA/Dx5 [4]) | IC50 (MES-SA/Dx5 [4]; Homo sapiens, MES-SA/Dx5, 144 h) [nM] | log D7.4 [5] | IC50 (A431) [nM] | IC50 (A431-B1; 72 h, PrestoBlue) [nM] | SR (A431 / A431-B1) (A431-B1) | IC50 (MES-SA [6]) [nM] | IC50 (MES-SA/Dx5 [7]; PrestoBlue) [nM] | SR (MES-SA / MES-SA/Dx5) (MES-SA/Dx5 [7]; + 1 µM TQ) | SR (MES-SA / MES-SA/Dx5) (MES-SA/Dx5 [7]) |
| --- | --- | --- | --- | --- | --- | --- | --- | --- | --- | --- | --- | --- | --- | --- | --- | --- | --- | --- |
| COc1cccc2c1C(=O)c1c(O)c3c(c(O)c1C2=O)C[C@@](O)(C(=O)CO)C[C@@H]3O[C@H]1C[C@H](N)[C@H](O)[C@H](C)O1 [doxorubicin, reference compound] | 50 ± 10 | 2620 | 1.3 | 0.01 | 190 ± 20 | 0.3 | 30 | 30 | 0.03 | 1070 |  |  |  |  |  |  |  |  |
| Oc1c(CN2CCCCC2)ccc2cccnc12 [PHQ, 7-(1-piperidinylmethyl)quinolin-8-ol, reference compound] |  | 490 | 1.8 | 7.8 |  |  | 3800 |  |  |  | +0.93 | 10100 ± 2950 | 2480 ± 700 | 4.09 | 3630 ± 580 | 620 ± 30 | 0.92 | 5.85 |
